Assay results from patent US20240269215A1, “NUTRITIONAL COMPOSITION FOR MUSCLE MASS, STRENGTH AND FUNCTION” (N.V. Nutricia, priority 2021, published 2024).
Several values for one entry are separate records, joined by “and”; a condition that tells them apart may be missing. Equal values may be shown once.

What was measured:
[1] = Leucine bioavailability (plasma leucine from dry blood spots) in aged mice; assay type: in vivo
Description: Aged mice (animal model: see example 1) were fed with one of the 4 supplements at TO and after 10 minutes a droplet of blood from the tail was collected and stamped on a card. […] The results are plotted in FIG. 2A. Since feces was not collected, it was not possible to precisely calculate the N in- and output. […] Summarized, the amount of leucine present in the intact protein was known from the analyses of the pure protein sources (data sheets available). […] Since fasted mice also show a baseline level of plasma leucine, these values were then deducted from the obtained leucine plasma values (column D in table below). […] It was then calculated the contribution of the increase from the intact Leu (column E) and from the added free leucine (column F).

[2] = tested on: Muscle Protein Synthesis (MPS); conditions: same experimental protocol, earlier work; cited from earlier work

CC(C)C[C@H](N)C(=O)O [free leucine, L-leucine]
bioavailability factor of leucine (rise of plasma leucine per mg of leucine consumed) [1]: 17.4 mmol/L/mg and 17.3 mmol/L/mg | anabolic (MPS) response in aged mice, Dijk (2018) [2]: did not show an anabolic response
